The test system of data set [1] is suppression of IFN signaling induced by ZIKV NS5. The data set can be described thus: pISRE-Luc luciferase reporter assay in 293T cells. It counts as cell-based, human. As to conditions: RIG-I(N) driven, 30 h treatment. Here is the method:
293T cells were cultured in 24-well plates (~ 1 × 10^5 cells per well) and co-transfected with pISRE-Luc (100 ng) and the plasmid coding for RIG-I (100 ng) together with the ZIKV NS5 plasmid at indicated concentrations. Control pcDNA3.1 vector was added to ensure that the same total amount of DNA was used for each transfection. To normalize for transfection efficiency, 5 ng of the constitutive Renilla luciferase reporter pRL-TK (Promega, San Luis Obispo, CA, USA) was added to each transfection. Six hours after transfection, cells were treated by fidaxomicin at indicated concentration for 30 h, followed by analysis of cell lysates for luciferase activity using the Dual-Luciferase Reporter Assay System Kit (Promega) according to the manufacturer’s protocol.
In general terms: A reporter such as luciferase makes a cellular process visible.

The test system of data set [2] is ZIKV ZG-01 strain. The data set can be described thus: In vitro antiviral assay, RT-qPCR, ZIKV ZG-01. It counts as cell-based. The settings on record: Zika virus. Here is the method: The anti-ZIKV activity of fidaxomicin and ribavirin was evaluated in vitro by plaque assay. Various cell lines, including SNB19 (6 × 10^4/well, 10% FBS DMEM), A172 (7 × 10^4/well, 10% FBS DMEM), Vero (6 × 10^4/well 10% FBS DMEM), Huh7 (7 × 10^4/well, 10% FBS DMEM), HUVECs (7 × 10^4/well, 15% FBS M199 medium supplemented with 2 mM L-glutamine, 0.02 mg/mL endothelial cell growth supplement, and 0.05 mg/mL heparin), and A549 (6 × 10^4/well, 5% FBS DMEM), were plated in 12-well plates and allowed to attach overnight, followed by infection with ZIKV (ZG-01 strain or MR766 strain, respectively, at indicated MOI) in the presence of different concentrations of fidaxomicin, ribavirin, or vehicle control for 1 h, followed by two washes with 1 × PBS and incubated with fresh medium (without virus) consisting of corresponding concentrations of the compounds for further 48 h. The cell supernatants were collected to quantify ZIKV infection by plaque assay as previously described or by RT-qPCR. […] The anti-DENV activity of fidaxomicin was evaluated in vitro by RT-qPCR.
RNA from cell supernatants or from mouse tissues (brain and testis) was prepared with RaPure Viral RNA/DNA Kit (Magen, Guangzhou, China) according to the manufacturer’s instructions. The first-strand cDNA was synthesized using random hexamer primers with the Revert Aid Reverse Transcription Kit (Thermo Fisher Scientific, Rockford, IL, USA), and real-time PCR was carried out by using LightCycler® 480 Probes Master (2× reaction mix buffer including DNA polymerase) (no. 04887301001, Roche, Basel, Switzerland). Virus concentration was determined by interpolation onto an internal standard curve made up of a 7-point dilution series of in vitro transcribed RNA and tissue weight to quantify ZIKV RNA as copies/gram tissue. Primer sets used for real-time PCR are shown in Additional file 1: Table S1. Reverse transcription and real-time PCR were performed for at least three times.
Background: In qPCR the cycle at which signal appears reflects the starting amount.

On the set-up of data set [3]: method as in PMID 22752858. The settings on record: rats; cited from earlier work.
In data set [4] the test system is STAT2 degradation induced by NS5. Kind of data set: Western blotting of STAT2 in 293T cells transfected with ZIKV NS5. It counts as cell-based, human. On the procedure:
Tissue specimens obtained from mice or cells were lysed with RIPA lysis buffer (Millipore, Bedford, MA) containing a cocktail of protease and phosphatase inhibitors (Sigma-Aldrich, St. Louis, MO, USA). Protein concentrations were measured with a bicinchoninic acid (BCA) protein assay (Thermo Fisher Scientific, Rockford, IL, USA). Protein samples were separated by sodium dodecyl sulfate-polyacrylamide gel electrophoresis (SDS-PAGE) and transferred onto a polyvinylidene difluoride (PVDF) membrane. Non-specific antibody binding sites were blocked with 5% non-fat milk in Tris-buffered saline (TBS) (20 mM Tris-HCl [pH 7.6], 135 mM NaCl, and 0.1% Tween 20) for 1 h at room temperature and then incubated with the following primary antibodies: anti-STAT2 (1:1000, sc166201, Santa Cruz Biotechnology, Santa Cruz, CA, USA), anti-ZIKV E (1:1000, BF-1176-56, BioFront Technologies, Tallahassee, USA), anti-ZIKV NS5 (1:1000, BF-6A1-100UG, BioFront), and anti-ZIKV NS3 (1:1000, GTX133309, GeneTex, Alton Pkwy, Irvine, CA, USA). Anti-GAPDH (1:2000, ab181602, Abcam, Cambridge, MA, USA) or mouse anti-GAPDH (1:1000, ab9484, Abcam) was used as a loading control. […] The relative protein level was quantified by densitometry and normalized to GAPDH or mGAPDH level using Image J software (NIH, Bethesda, MD, USA).
(In general: Immunoblotting shows a protein as a band on a membrane.)

For data set [5], the system named is ZIKV. The data set can be described thus: Oral administration test in ZIKV-infected mice. It counts as in vivo. The settings on record: 225 mg/kg, vs vehicle. On the procedure:
Fig. S4. Oral administration test for the antiviral efficacy of fidaxomicin in vivo. a Schematic illustration of the animal experimental design for the oral administration test (n=10 animals per group). b Kaplan–Meier survival of ZIKV-infected mice treated with fidaxomicin at the dosage of 225mg/kg. c Body weight changes were recorded daily for ZIKV-infected mice treated with fidaxomicin at the dosage of 225mg/kg or with control delivery vehicle. d Tissue viral loads in the brains of ZIKV-infected mice were determined by RT-qPCR (P value, compared to vehicle control).

“Also recorded” adds a separate entry of the source. Like-named read-outs stand apart in the source and are kept apart here.

Consider `CCc1c(Cl)c(O)c(Cl)c(O)c1C(=O)O[C@H]1[C@H](O)[C@H](OC)[C@H](OC/C2=C\C=C\C[C@H](O)/C(C)=C/[C@H](CC)[C@@H](O[C@@H]3OC(C)(C)[C@@H](OC(=O)C(C)C)[C@H](O)[C@@H]3O)/C(C)=C/C(C)=C/C[C@@H]([C@@H](C)O)OC2=O)O[C@@H]1C` [Fidaxomicin], for which the “effect on NS5 suppression of ISRE reporter luciferase activity” value in data set [1] is reported as “did not liberate the suppression of IFN signaling”. Also, the EC50 in data set [2] (A 172, A172 cells, viral RNA copy number by RT-qPCR) is 8.8 ± 1.9 µM; in data set [2] (HUVEC, HUVECs, viral RNA copy number by RT-qPCR), 14.5 ± 1.2 µM; in data set [2] (Huh-7, Huh7 cells, viral RNA copy number by RT-qPCR), 11.1 ± 1.6 µM; in data set [2] (SNB-19, SNB19 cells, viral RNA copy number by RT-qPCR), 9.2 ± 2.4 µM; in data set [2] (A549 cells, viral RNA copy number by RT-qPCR) it was 13 ± 3.3 µM; in data set [2] (Vero cells, viral RNA copy number by RT-qPCR), 12.5 ± 2.2 µM. The EC90 in data set [2] (A 172, A172 cells, viral RNA copy number by RT-qPCR, read-out: EC90) is 11.8 ± 1.4 µM; in data set [2] (HUVEC) it was 23.2 ± 3 µM; in data set [2] (Huh-7, Huh7 cells, viral RNA copy number by RT-qPCR, read-out: EC90) it was 21.6 ± 1 µM; in data set [2] (SNB-19, SNB19 cells, viral RNA copy number by RT-qPCR, read-out: EC90) it was 17.3 ± 4.8 µM; in data set [2] (A549 cells, viral RNA copy number by RT-qPCR, read-out: EC90), 17.8 ± 5.3 µM; in data set [2] (Vero cells, viral RNA copy number by RT-qPCR, read-out: EC90) it was 52.1 ± 5.5 µM. In addition, the “No Observed Adverse Effect Level (NOAEL)” value in data set [3] is 62.5 mg/kg. In addition, the “effect on STAT2 degradation in presence of NS5” value in data set [4] is given as “did not prevent the degradation of STAT2”. In addition, the “outcome of ZIKV-infected mice after oral administration” value in data set [5] was “did not improve the outcome; also recorded: only weakly antagonizes”.

The EC50 is the concentration that produces a half-maximal response. Higher therefore signals a less potent agent. As a reminder, the EC90 is the point of the concentration-response curve where the effect stands at 90%.
